Data published in patent US20080227823A1, “AMIDE DERIVATIVES AS CALCIUM CHANNEL BLOCKERS” (priority 2007, published 2008).

What was measured:
Assay in all cases: T-type calcium channel block, whole cell patch clamp in HEK cells
Type in all cases: cell-based
Settings in all cases: measured at 1 μM drug, mainly non-inactivated protocol
[1] = biological target: T1, human α1G T-type channels (Homo sapiens, UniProt O43497)
T1 construct: expressed in transfected cells; host or cells: HEK 293
Procedure: (§1) T-type calcium channel blocking activity was assayed in human embryonic kidney cells, HEK 293, stably transfected with the T-type calcium channel subunits. Briefly, cells were cultured in Dulbecco's modified eagle medium (DMEM) supplemented with 10% fetal bovine serum, 200 U/ml penicillin and 0.2 mg/ml streptomycin at 37° C. with 5% CO2. At 85% confluency cells were split with 0.25% trypsin/1 mM EDTA and plated at 10% confluency on glass coverslips. At 12 hours the medium was replaced and the cells stably transfected using a standard calcium phosphate protocol and the appropriate calcium channel cDNA's. Fresh DMEM was supplied and the cells transferred to 28° C./5% CO2. Cells were incubated for 1 to 2 days prior to whole cell recording.
(§2) Standard patch-clamp techniques were employed to identify blockers of T-type currents. Briefly, previously described HEK cell lines stably expressing human α1G, α1H and α1I T-type channels were used for all the recordings (passage #: 4-20, 37° C., 5% CO2). Whole cell patch clamp experiments were performed using an Axopatch 200B amplifier (Axon Instruments, Burlingame, Calif.) linked to a personal computer equipped with pCLAMP software. Data were analyzed using Clampfit (Axon Instruments) and SigmaPlot 4.0 (Jandel Scientific). To obtain T-type currents, plastic dishes containing semi-confluent cells were positioned on the stage of a ZEISS AXIOVERT S100 microscope after replacing the culture medium with external solution (see below). Whole-cell patches were obtained using pipettes (borosilicate glass with filament, O.D.: 1.5 mm, I.D.: 0.86 mm, 10 cm length), fabricated on a SUTTER P-97 puller with resistance values of ˜5 MΩ (see below for internal solution).
(§3) T-type currents were reliably obtained by using two voltage protocols: • (1) “non-inactivating”, and • (2) “inactivation”
(§4) In the non-inactivating protocol, the holding potential is set at −110 mV and with a pre-pulse at −100 mV for 1 second prior to the test pulse at −40 mV for 50 ms. In the inactivation protocol, the pre-pulse is at approximately −85 mV for 1 second, which inactivates about 15% of the T-type channels.
(§5) Test compounds were dissolved in external solution, 0.1-0.01% DMSO. After 10 min rest, they were applied by gravity close to the cell using a WPI microfil tubing. The “non-inactivated” pre-pulse was used to examine the resting block of a compound. The “inactivated” protocol was employed to study voltage-dependent block. However, the initial data shown below were mainly obtained using the non-inactivated protocol only. Kd values are shown for various compounds of the invention in Table 4 measured at 1 μM for the drug of interest except for compound 18 which was measured at 200 nM.

[2] = biological target: T2, human α1I T-type channels (Homo sapiens, UniProt Q9P0X4)
T2 construct: expressed in transfected cells; host or cells: HEK 293
Procedure: as §1, §2, §3, §4, §5

[3] = biological target: T3, human α1H T-type channels (Homo sapiens, UniProt O95180)
T3 construct: expressed in transfected cells; host or cells: HEK 293
T3 sequence (O95180 whole entry): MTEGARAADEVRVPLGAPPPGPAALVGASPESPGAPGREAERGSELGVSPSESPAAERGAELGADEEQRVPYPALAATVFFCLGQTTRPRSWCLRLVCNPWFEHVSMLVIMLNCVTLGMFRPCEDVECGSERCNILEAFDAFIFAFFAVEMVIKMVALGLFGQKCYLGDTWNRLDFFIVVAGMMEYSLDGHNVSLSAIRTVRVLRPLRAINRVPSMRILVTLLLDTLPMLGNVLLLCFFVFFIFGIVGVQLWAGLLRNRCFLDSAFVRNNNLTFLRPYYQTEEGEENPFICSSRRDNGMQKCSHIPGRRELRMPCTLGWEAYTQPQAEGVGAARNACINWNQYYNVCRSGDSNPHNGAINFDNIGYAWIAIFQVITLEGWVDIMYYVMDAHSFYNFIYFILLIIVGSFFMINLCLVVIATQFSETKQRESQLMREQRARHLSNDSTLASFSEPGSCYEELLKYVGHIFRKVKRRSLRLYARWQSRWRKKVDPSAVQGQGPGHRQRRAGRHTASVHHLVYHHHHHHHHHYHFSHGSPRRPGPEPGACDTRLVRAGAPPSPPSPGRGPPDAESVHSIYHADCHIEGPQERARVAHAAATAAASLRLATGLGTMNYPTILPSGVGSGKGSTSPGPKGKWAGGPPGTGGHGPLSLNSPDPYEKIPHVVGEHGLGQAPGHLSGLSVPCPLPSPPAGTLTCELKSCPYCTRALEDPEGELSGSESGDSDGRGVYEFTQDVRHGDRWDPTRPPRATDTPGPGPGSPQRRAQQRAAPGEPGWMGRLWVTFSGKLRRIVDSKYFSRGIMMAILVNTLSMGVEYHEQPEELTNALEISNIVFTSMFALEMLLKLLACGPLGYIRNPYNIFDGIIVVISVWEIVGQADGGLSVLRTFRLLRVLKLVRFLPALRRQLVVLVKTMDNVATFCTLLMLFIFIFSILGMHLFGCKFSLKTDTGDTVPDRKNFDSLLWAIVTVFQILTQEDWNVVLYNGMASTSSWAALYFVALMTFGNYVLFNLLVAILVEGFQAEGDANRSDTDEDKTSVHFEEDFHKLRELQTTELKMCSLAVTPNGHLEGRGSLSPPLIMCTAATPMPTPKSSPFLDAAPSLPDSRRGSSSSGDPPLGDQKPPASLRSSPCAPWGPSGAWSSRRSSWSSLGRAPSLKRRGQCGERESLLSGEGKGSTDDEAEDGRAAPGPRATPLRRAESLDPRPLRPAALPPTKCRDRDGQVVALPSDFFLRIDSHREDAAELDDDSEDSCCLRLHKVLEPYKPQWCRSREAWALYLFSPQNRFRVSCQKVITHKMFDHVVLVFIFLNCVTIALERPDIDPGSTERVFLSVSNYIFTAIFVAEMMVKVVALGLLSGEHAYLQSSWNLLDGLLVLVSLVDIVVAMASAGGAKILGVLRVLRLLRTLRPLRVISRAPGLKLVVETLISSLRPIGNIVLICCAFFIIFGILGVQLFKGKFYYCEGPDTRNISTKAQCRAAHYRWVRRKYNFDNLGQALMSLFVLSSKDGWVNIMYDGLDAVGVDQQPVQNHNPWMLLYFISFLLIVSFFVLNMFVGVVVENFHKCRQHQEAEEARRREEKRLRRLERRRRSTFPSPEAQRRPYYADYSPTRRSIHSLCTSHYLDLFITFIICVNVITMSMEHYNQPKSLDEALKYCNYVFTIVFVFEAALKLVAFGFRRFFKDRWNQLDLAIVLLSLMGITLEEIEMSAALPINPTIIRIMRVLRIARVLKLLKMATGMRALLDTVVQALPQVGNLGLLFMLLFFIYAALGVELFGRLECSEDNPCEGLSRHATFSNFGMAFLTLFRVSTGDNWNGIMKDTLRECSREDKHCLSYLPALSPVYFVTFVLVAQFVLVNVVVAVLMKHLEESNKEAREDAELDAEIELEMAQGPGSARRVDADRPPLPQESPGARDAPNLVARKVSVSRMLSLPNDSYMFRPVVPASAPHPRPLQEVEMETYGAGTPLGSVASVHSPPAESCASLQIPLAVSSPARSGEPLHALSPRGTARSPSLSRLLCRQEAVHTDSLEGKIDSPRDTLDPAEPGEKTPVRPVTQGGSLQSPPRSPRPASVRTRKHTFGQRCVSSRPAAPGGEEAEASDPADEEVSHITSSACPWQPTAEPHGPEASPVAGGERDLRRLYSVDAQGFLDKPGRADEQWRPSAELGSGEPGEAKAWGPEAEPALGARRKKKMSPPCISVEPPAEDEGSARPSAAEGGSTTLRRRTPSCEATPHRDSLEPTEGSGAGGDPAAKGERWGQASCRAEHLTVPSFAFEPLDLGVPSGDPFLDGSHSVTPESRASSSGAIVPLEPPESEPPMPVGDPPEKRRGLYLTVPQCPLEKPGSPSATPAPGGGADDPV
Procedure: as §1, §2, §3, §4, §5

T1 sequence (O43497 whole entry): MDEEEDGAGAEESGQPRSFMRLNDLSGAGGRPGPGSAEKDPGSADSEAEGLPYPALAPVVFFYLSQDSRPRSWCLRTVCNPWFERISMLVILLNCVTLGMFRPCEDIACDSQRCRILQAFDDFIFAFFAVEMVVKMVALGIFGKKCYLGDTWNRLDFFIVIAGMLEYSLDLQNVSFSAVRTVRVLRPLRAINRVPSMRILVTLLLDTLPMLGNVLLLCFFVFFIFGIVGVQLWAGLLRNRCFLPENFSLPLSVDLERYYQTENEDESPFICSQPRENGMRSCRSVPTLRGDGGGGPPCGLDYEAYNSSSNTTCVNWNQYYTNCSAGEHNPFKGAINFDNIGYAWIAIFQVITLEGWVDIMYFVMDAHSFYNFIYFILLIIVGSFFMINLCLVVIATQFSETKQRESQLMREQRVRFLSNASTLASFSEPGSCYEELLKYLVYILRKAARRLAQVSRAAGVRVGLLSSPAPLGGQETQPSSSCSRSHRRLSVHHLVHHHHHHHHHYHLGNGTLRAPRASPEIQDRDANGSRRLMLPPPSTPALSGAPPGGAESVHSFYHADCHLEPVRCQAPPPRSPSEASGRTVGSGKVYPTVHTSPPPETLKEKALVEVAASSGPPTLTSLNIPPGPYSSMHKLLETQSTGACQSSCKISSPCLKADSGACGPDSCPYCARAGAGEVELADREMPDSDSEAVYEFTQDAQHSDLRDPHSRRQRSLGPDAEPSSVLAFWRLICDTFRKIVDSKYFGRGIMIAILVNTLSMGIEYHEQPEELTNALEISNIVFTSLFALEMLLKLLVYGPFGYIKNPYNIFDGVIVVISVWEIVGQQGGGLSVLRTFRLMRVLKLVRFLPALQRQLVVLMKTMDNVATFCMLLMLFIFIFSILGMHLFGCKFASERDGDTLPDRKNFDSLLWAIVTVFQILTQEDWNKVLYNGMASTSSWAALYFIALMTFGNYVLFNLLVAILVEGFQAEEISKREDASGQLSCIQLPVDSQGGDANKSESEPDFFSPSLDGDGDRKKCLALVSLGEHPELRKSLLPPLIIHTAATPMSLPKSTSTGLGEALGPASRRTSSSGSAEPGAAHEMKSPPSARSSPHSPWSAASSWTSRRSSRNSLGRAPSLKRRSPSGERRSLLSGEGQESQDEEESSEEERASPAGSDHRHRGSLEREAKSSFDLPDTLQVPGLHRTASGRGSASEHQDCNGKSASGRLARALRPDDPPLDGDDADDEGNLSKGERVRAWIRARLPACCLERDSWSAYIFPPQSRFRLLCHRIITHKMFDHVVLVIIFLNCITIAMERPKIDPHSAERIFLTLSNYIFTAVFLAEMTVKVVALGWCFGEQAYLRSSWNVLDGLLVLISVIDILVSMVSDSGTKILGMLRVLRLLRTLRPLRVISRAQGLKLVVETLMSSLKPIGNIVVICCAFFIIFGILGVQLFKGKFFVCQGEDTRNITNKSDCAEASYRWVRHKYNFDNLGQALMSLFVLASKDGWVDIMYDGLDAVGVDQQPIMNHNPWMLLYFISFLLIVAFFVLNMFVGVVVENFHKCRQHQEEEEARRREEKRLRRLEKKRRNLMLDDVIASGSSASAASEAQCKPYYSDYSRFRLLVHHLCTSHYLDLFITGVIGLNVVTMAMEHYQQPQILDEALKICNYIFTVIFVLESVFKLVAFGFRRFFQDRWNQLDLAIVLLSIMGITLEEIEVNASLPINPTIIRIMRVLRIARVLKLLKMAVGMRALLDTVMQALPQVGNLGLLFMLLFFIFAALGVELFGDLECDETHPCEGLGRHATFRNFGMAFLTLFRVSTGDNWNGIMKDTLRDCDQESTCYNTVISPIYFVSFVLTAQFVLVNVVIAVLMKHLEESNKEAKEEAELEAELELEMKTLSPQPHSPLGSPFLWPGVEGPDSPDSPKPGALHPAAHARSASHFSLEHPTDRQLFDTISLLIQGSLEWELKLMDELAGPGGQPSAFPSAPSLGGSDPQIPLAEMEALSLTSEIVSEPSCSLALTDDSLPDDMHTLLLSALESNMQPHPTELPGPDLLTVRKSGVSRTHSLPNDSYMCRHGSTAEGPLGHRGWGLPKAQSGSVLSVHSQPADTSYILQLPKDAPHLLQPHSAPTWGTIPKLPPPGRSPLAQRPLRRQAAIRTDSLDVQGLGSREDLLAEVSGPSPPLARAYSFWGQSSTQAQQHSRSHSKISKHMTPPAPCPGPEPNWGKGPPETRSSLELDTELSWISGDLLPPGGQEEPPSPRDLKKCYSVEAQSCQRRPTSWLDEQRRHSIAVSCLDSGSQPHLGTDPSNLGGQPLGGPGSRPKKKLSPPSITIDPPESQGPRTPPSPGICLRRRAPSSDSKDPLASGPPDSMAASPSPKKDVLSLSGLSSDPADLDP

SMILES | Kd [1] [nM] | Kd [2] [nM] | Kd [3] [nM]
O=C(NCCc1c[nH]c2ccc(F)cc12)C1CCCN1C(=O)/C=C/c1ccc(F)c(Br)c1 (stereo in doubt) [Compound 19, (R,E)-1-(3-(3-bromo-4-fluorophenyl)acryloyl)-N-(2-(5-fluoro-1H-indol-3-yl)ethyl)pyrrolidine-2-carboxamide] | 1350 |  | 
CC(C)(NC(=O)/C=C/c1ccc(F)c(Br)c1)C(=O)NCCc1c[nH]c2ccc(F)cc12 [Compound 15, (E)-3-(3-bromo-4-fluorophenyl)-N-(1-(2-(5-fluoro-1H-indol-3-yl)ethylamino)-2-methyl-1-oxopropan-2-yl)acrylamide] | 360 | 480 | 
O=C(/C=C/c1ccc(F)c(Br)c1)NC1(C(=O)NCCc2c[nH]c3ccc(F)cc23)CCOCC1 [Compound 16, (E)-4-(3-(3-bromo-4-fluorophenyl)acrylamido)-N-(2-(5-fluoro-1H-indol-3-yl)ethyl)tetrahydro-2H-pyran-4-carboxamide] | 430 |  | 
CC(=O)N1CCC(NC(=O)/C=C/c2ccc(F)c(Br)c2)(C(=O)NCCc2c[nH]c3ccc(F)cc23)CC1 [Compound 21, (E)-1-acetyl-4-(3-(3-bromo-4-fluorophenyl)acrylamido)-N-(2-(5-fluoro-1H-indol-3-yl)ethyl)piperidine-4-carboxamide] | 2620 |  | 
COCCC(=O)N1CCC(NC(=O)/C=C/c2ccc(F)c(Br)c2)(C(=O)NCCc2c[nH]c3ccc(F)cc23)CC1 [Compound 25, (E)-4-(3-(3-bromo-4-fluorophenyl)acrylamido)-N-(2-(5-fluoro-1H-indol-3-yl)ethyl)-1-(3-methoxypropanoyl)piperidine-4-carboxamide] | 5370 |  | 
CCNC(=O)N1CCC(NC(=O)/C=C/c2ccc(F)c(Br)c2)(C(=O)NCCc2c[nH]c3ccc(F)cc23)CC1 [Compound 26, (E)-4-(3-(3-bromo-4-fluorophenyl)acrylamido)-N1-ethyl-N4-(2-(5-fluoro-1H-indol-3-yl)ethyl)piperidine-1,4-dicarboxamide] | 550 |  | 
O=C(/C=C/c1ccc(F)cc1)NC1(C(=O)Nc2cccc(C(F)(F)F)c2)CCNCC1 [Compound 33, (E)-4-(3-(4-fluorophenyl)acrylamido)-N-(3-(trifluoromethyl)phenyl)piperidine-4-carboxamide] | 2450 |  | 
O=C(/C=C/c1ccc(F)c(F)c1)NC1(C(=O)Nc2ccccc2)CCNCC1 [Compound 34, (E)-4-(3-(3,4-difluorophenyl)acrylamido)-N-phenylpiperidine-4-carboxamide] | 3290 |  | 
O=C(/C=C/c1ccc(F)cc1)NC1(C(=O)Nc2cc(Cl)cc(Cl)c2)CCNCC1 [Compound 44, (E)-N-(3,5-dichlorophenyl)-4-(3-(4-fluorophenyl)acrylamido)piperidine-4-carboxamide] | 320 |  | 1610
O=C(/C=C/c1ccc(F)cc1)NC1(C(=O)Nc2ccccc2C(F)(F)F)CCNCC1 [Compound 46, (E)-4-(3-(4-fluorophenyl)acrylamido)-N-(2-(trifluoromethyl)phenyl)piperidine-4-carboxamide] | 14600 |  | 
CN(CCc1c[nH]c2ccc(F)cc12)C(=O)C1(NC(=O)/C=C/c2ccc(F)cc2)CCNCC1 [Compound 49, (E)-N-(2-(5-fluoro-1H-indol-3-yl)ethyl)-4-(3-(4-fluorophenyl)acrylamido)-N-methylpiperidine-4-carboxamide] | 580 |  | 
O=C(/C=C/c1ccc(F)cc1)NC1(C(=O)Nc2cc(C(F)(F)F)cc(C(F)(F)F)c2)CCC(O)CC1 (stereo not drawn) [Compound 56, (E)-N-(3,5-bis(trifluoromethyl)phenyl)-1-(3-(4-fluorophenyl)acrylamido)-4-hydroxycyclohexanecarboxamide] | 1060 |  | 
COCCOC1CCC(NC(=O)/C=C/c2ccc(F)cc2)(C(=O)Nc2cc(C(F)(F)F)cc(C(F)(F)F)c2)CC1 (stereo not drawn) [Compound 61, (E)-N-(3,5-bis(trifluoromethyl)phenyl)-1-(3-(4-fluorophenyl)acrylamido)-4-(2-methoxyethoxy)cyclohexanecarboxamide] | 990 |  | 
CN(CCc1c[nH]c2ccc(F)cc12)C(=O)C1(NC(=O)/C=C/c2ccc(F)cc2)CCN(CC(N)=O)CC1 [Compound 65, (E)-1-(2-amino-2-oxoethyl)-N-(2-(5-fluoro-1H-indol-3-yl)ethyl)-4-(3-(4-fluorophenyl)acrylamido)-N-methylpiperidine-4-carboxamide] | 2570 |  | 
CC(C)(O)C(=O)N1CCC(NC(=O)/C=C/c2ccc(F)cc2)(C(=O)Nc2cc(C(F)(F)F)cc(C(F)(F)F)c2)CC1 [Compound 66, (E)-N-(3,5-bis(trifluoromethyl)phenyl)-4-(3-(4-fluorophenyl)acrylamido)-1-(2-hydroxy-2-methylpropanoyl)piperidine-4-carboxamide] | 1630 |  | 
CN(CCc1c[nH]c2ccc(F)cc12)C(=O)C1(NC(=O)/C=C/c2ccc(F)cc2)CCN(C(=O)CN)CC1 [Compound 67, (E)-1-(2-aminoacetyl)-N-(2-(5-fluoro-1H-indol-3-yl)ethyl)-4-(3-(4-fluorophenyl)acrylamido)-N-methylpiperidine-4-carboxamide] | 1020 |  | 
CC(C)(O)CN1CCC(NC(=O)/C=C/c2ccc(F)cc2)(C(=O)NCCc2c[nH]c3ccc(F)cc23)CC1 [Compound 69, (E)-N-(2-(5-fluoro-1H-indol-3-yl)ethyl)-4-(3-(4-fluorophenyl)acrylamido)-1-(2-hydroxy-2-methylpropyl)piperidine-4-carboxamide] | 3630 |  | 

These reach a lower Kd [1]. Values come first.

Kd [1] [nM] | Kd [2] [nM] | Kd [3] [nM] | SMILES
280 |  |  | NC(=O)CN1CCC(NC(=O)/C=C/c2ccc(F)cc2)(C(=O)Nc2cc(C(F)(F)F)cc(C(F)(F)F)c2)CC1 [Compound 62, (E)-1-(2-amino-2-oxoethyl)-N-(3,5-bis(trifluoromethyl)phenyl)-4-(3-(4-fluorophenyl)acrylamido)piperidine-4-carboxamide]
220 |  | 41900 | CN1CCC(NC(=O)/C=C/c2ccc(F)cc2)(C(=O)Nc2cc(C(F)(F)F)cc(C(F)(F)F)c2)CC1 [Compound 42, (E)-N-(3,5-bis(trifluoromethyl)phenyl)-4-(3-(4-fluorophenyl)acrylamido)-1-methylpiperidine-4-carboxamide]
210 |  | 6320 | O=C(/C=C/c1ccc(F)cc1)NC1(C(=O)Nc2cc(C(F)(F)F)cc(C(F)(F)F)c2)CCN(C2CCOCC2)CC1 [Compound 54, (E)-N-(3,5-bis(trifluoromethyl)phenyl)-4-(3-(4-fluorophenyl)acrylamido)-1-(tetrahydro-2H-pyran-4-yl)piperidine-4-carboxamide]
160 |  |  | O=C(/C=C/c1ccc(F)cc1)NC1(C(=O)Nc2cc(C(F)(F)F)cc(C(F)(F)F)c2)CCN(c2ncccn2)CC1 [Compound 52, (E)-N-(3,5-bis(trifluoromethyl)phenyl)-4-(3-(4-fluorophenyl)acrylamido)-1-(pyrimidin-2-yl)piperidine-4-carboxamide]
130 |  | 2420 | O=C(/C=C\c1ccccc1)NC1(C(=O)Nc2cc(C(F)(F)F)cc(C(F)(F)F)c2)CCNCC1 [Compound 40, (Z)-N-(3,5-bis(trifluoromethyl)phenyl)-4-(3-phenylacrylamido)piperidine-4-carboxamide]
130 |  |  | COCCN1CCC(NC(=O)/C=C/c2ccc(F)cc2)(C(=O)Nc2cc(C(F)(F)F)cc(C(F)(F)F)c2)CC1 [Compound 57, (E)-N-(3,5-bis(trifluoromethyl)phenyl)-4-(3-(4-fluorophenyl)acrylamido)-1-(2-methoxyethyl)piperidine-4-carboxamide]
90 |  |  | NCC(=O)N1CCC(NC(=O)/C=C/c2ccc(F)cc2)(C(=O)Nc2cc(C(F)(F)F)cc(C(F)(F)F)c2)CC1 [Compound 63, (E)-1-(2-aminoacetyl)-N-(3,5-bis(trifluoromethyl)phenyl)-4-(3-(4-fluorophenyl)acrylamido)piperidine-4-carboxamide]
80 |  | 1120 | Cc1cc(/C=C/C(=O)NC2(C(=O)Nc3cc(C(F)(F)F)cc(C(F)(F)F)c3)CCN(C)CC2)ccc1F [Compound 43, (E)-N-(3,5-bis(trifluoromethyl)phenyl)-4-(3-(4-fluoro-3-methylphenyl)acrylamido)-1-methylpiperidine-4-carboxamide]
80 |  | 2970 | O=C(/C=C/c1ccc(F)c(F)c1)NC1(C(=O)Nc2ccccc2Oc2ccccc2)CCNCC1 [Compound 50, (E)-4-(3-(3,4-difluorophenyl)acrylamido)-N-(2-phenoxyphenyl)piperidine-4-carboxamide]
